# In PubChem BioAssay (NCI):
#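 Protocol summary: plate cells (96-well), add compound at 5 concentrations, incubate 48 h, interpolate endpoints linearly. GI50 is the concentration that inhibits growth by half. TGI denotes the concentration required for complete inhibition of growth.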
# Key:
# Experiment in all cases: growth of human tumour cells (NCI), 48 h
# [1] = test system: 786-0 renal
# [2] = test system: A498 renal
# [3] = test system: A549 NSCLC
# [4] = test system: ACHN renal
# [5] = test system: BT-549 breast
# [6] = test system: CAKI-1 renal
# [7] = test system: CCRF-CEM leukemia
# [8] = test system: COLO 205 colon
# [9] = test system: DU-145 prostate
# [10] = test system: HCC-2998 colon
# [11] = test system: HCT-116 colon
# [12] = test system: HCT-15 colon
# [13] = test system: HL-60(TB) leukemia
# [14] = test system: HOP-62 NSCLC
# [15] = test system: HOP-92 NSCLC
# [16] = test system: HS 578T breast
# [17] = test system: HT29 colon
# [18] = test system: IGROV1 ovarian
# [19] = test system: K-562 leukemia
# [20] = test system: KM12 colon
# [21] = test system: LOX IMVI melanoma
# [22] = test system: M14 melanoma
# [23] = test system: MALME-3M melanoma
# [24] = test system: MCF7 breast
# [25] = test system: MDA-MB-231 breast
# [26] = test system: MDA-MB-435
# [27] = test system: MOLT-4 leukemia
# [28] = test system: NCI-H226 lung
# [29] = test system: NCI-H23 lung
# [30] = test system: NCI-H460 lung
# [31] = test system: NCI-H522 lung
# [32] = test system: NCI/ADR-RES ovarian
# [33] = test system: OVCAR-3 ovarian
# [34] = test system: OVCAR-4 ovarian
# [35] = test system: OVCAR-5 ovarian
# [36] = test system: OVCAR-8 ovarian
# [37] = test system: PC-3 prostate
# [38] = test system: RPMI-8226 leukemia
# [39] = test system: RXF 393 renal
# [40] = test system: SF-268 CNS
# [41] = test system: SF-295 CNS
# [42] = test system: SF-539 CNS
# [43] = test system: SK-MEL-2 melanoma
# [44] = test system: SK-MEL-28 melanoma
# [45] = test system: SK-MEL-5 melanoma
# [46] = test system: SK-OV-3 ovarian
# [47] = test system: SN12C renal
# [48] = test system: SNB-19 CNS
# [49] = test system: SNB-75 CNS
# [50] = test system: SR leukemia
# [51] = test system: SW-620 colon
# [52] = test system: T-47D breast
# [53] = test system: TK-10 renal
# [54] = test system: U251 CNS
# [55] = test system: UACC-257 melanoma
# [56] = test system: UACC-62 melanoma
# [57] = test system: UO-31 renal
structure (smiles),measurement,setting,value
Cn1cc(C2=C(c3cn(C)c4ccc(OCc5ccccc5)cc34)C(=O)NC2=O)c2ccccc21,GI50,[1],> 25 µM
same,TGI,[1],> 25 µM
same,GI50,[2],> 25 µM
same,TGI,[2],> 25 µM
same,GI50,[3],> 25 µM
same,TGI,[3],> 25 µM
same,GI50,[4],> 25 µM
same,TGI,[4],> 25 µM
same,GI50,[5],> 25 µM
same,TGI,[5],> 25 µM
same,GI50,[6],> 25 µM
same,TGI,[6],> 25 µM
same,GI50,[7],> 25 µM
same,TGI,[7],> 25 µM
same,GI50,[8],> 25 µM
same,TGI,[8],> 25 µM
same,GI50,[9],> 25 µM
same,TGI,[9],> 25 µM
same,GI50,[10],> 25 µM
same,TGI,[10],> 25 µM
same,GI50,[11],> 25 µM
same,TGI,[11],> 25 µM
same,GI50,[12],> 25 µM
same,TGI,[12],> 25 µM
same,GI50,[13],> 25 µM
same,TGI,[13],> 25 µM
same,GI50,[14],> 25 µM
same,TGI,[14],> 25 µM
same,GI50,[15],> 25 µM
same,TGI,[15],> 25 µM
same,GI50,[16],> 21.2 µM
same,TGI,[16],> 25 µM
same,GI50,[17],> 25 µM
same,TGI,[17],> 25 µM
same,GI50,[18],> 25 µM
same,TGI,[18],> 25 µM
same,GI50,[19],> 25 µM
same,TGI,[19],> 25 µM
same,GI50,[20],> 25 µM
same,TGI,[20],> 25 µM
same,GI50,[21],> 25 µM
same,TGI,[21],> 25 µM
same,GI50,[22],> 25 µM
same,TGI,[22],> 25 µM
same,GI50,[23],> 25 µM
same,TGI,[23],> 25 µM
same,GI50,[24],> 25 µM
same,TGI,[24],> 25 µM
same,GI50,[25],> 25 µM
same,TGI,[25],> 25 µM
same,GI50,[26],> 25 µM
same,TGI,[26],> 25 µM
same,GI50,[27],> 25 µM
same,TGI,[27],> 25 µM
same,GI50,[28],> 25 µM
same,TGI,[28],> 25 µM
same,GI50,[29],> 25 µM
same,TGI,[29],> 25 µM
same,GI50,[30],> 25 µM
same,TGI,[30],> 25 µM
same,GI50,[31],> 25 µM
same,TGI,[31],> 25 µM
same,GI50,[32],> 25 µM
same,TGI,[32],> 25 µM
same,GI50,[33],> 25 µM
same,TGI,[33],> 25 µM
same,GI50,[34],> 16.9 µM
same,TGI,[34],> 25 µM
same,GI50,[35],> 25 µM
same,TGI,[35],> 25 µM
same,GI50,[36],> 25 µM
same,TGI,[36],> 25 µM
same,GI50,[37],> 25 µM
same,TGI,[37],> 25 µM
same,GI50,[38],> 25 µM
same,TGI,[38],> 25 µM
same,GI50,[39],> 25 µM
same,TGI,[39],> 25 µM
same,GI50,[40],> 25 µM
same,TGI,[40],> 25 µM
same,GI50,[41],> 25 µM
same,TGI,[41],> 25 µM
same,GI50,[42],> 25 µM
same,TGI,[42],> 25 µM
same,GI50,[43],> 25 µM
same,TGI,[43],> 25 µM
same,GI50,[44],> 25 µM
same,TGI,[44],> 25 µM
same,GI50,[45],> 25 µM
same,TGI,[45],> 25 µM
same,GI50,[46],> 25 µM
same,TGI,[46],> 25 µM
same,GI50,[47],> 25 µM
same,TGI,[47],> 25 µM
same,GI50,[48],> 25 µM
same,TGI,[48],> 25 µM
same,GI50,[49],> 25 µM
same,TGI,[49],> 25 µM
same,GI50,[50],> 25 µM
same,TGI,[50],> 25 µM
same,GI50,[51],> 25 µM
same,TGI,[51],> 25 µM
same,GI50,[52],> 25 µM
same,TGI,[52],> 25 µM
same,GI50,[53],> 25 µM
same,TGI,[53],> 25 µM
same,GI50,[54],> 25 µM
same,TGI,[54],> 25 µM
same,GI50,[55],> 25 µM
same,TGI,[55],> 25 µM
same,GI50,[56],> 25 µM
same,TGI,[56],> 25 µM
same,GI50,[57],> 25 µM
same,TGI,[57],> 25 µM
C[C@]12CC[C@@H]3c4ccc(O)cc4CC[C@H]3[C@@H]1CC[C@@H]2NS(=O)(=O)c1cccc(OC(F)(F)F)c1,GI50,[1],1.92 µM
same,TGI,[1],3.93 µM
same,GI50,[2],1.23 µM
same,TGI,[2],2.79 µM
same,GI50,[3],2.7 µM
same,TGI,[3],8.24 µM
same,GI50,[4],2.45 µM
same,TGI,[4],6.7 µM
same,GI50,[5],1.97 µM
same,TGI,[5],3.66 µM
same,GI50,[6],2.11 µM
same,TGI,[6],5.97 µM
same,GI50,[7],3.16 µM
same,TGI,[7],12.3 µM
same,GI50,[8],1.86 µM
same,TGI,[8],3.3 µM
same,GI50,[9],3.83 µM
same,TGI,[9],12.1 µM
same,GI50,[10],3.16 µM
same,TGI,[10],9.37 µM
same,GI50,[11],1.84 µM
same,TGI,[11],3.53 µM
same,GI50,[12],1.65 µM
same,TGI,[12],3.76 µM
same,GI50,[13],2.18 µM
same,TGI,[13],7.04 µM
same,GI50,[14],1.99 µM
same,TGI,[14],3.59 µM
same,GI50,[15],1.44 µM
same,TGI,[15],3.95 µM
same,GI50,[16],2.62 µM
same,TGI,[16],10.5 µM
same,GI50,[17],2.14 µM
same,TGI,[17],3.94 µM
same,GI50,[18],3.44 µM
same,TGI,[18],9.19 µM
same,GI50,[19],3.35 µM
same,TGI,[19],10.8 µM
same,GI50,[20],2.01 µM
same,TGI,[20],4.08 µM
same,GI50,[21],1.77 µM
same,TGI,[21],3.17 µM
same,GI50,[22],2.2 µM
same,TGI,[22],4.89 µM
same,GI50,[23],1.99 µM
same,TGI,[23],4.67 µM
same,GI50,[24],1.47 µM
same,TGI,[24],3.36 µM
same,GI50,[25],1.71 µM
same,TGI,[25],3.86 µM
same,GI50,[26],1.64 µM
same,TGI,[26],3.02 µM
same,GI50,[27],2.63 µM
same,TGI,[27],12.1 µM
same,GI50,[28],1.69 µM
same,TGI,[28],3.29 µM
same,GI50,[29],2.08 µM
same,TGI,[29],4.87 µM
same,GI50,[30],1.89 µM
same,TGI,[30],3.71 µM
same,GI50,[31],2.23 µM
same,TGI,[31],5.42 µM
same,GI50,[32],2.59 µM
same,TGI,[32],7.7 µM
same,GI50,[33],2.04 µM
same,TGI,[33],3.99 µM
same,GI50,[34],1.85 µM
same,TGI,[34],4.69 µM
same,GI50,[35],1.73 µM
same,TGI,[35],3.2 µM
same,GI50,[36],2.78 µM
same,TGI,[36],9.06 µM
same,GI50,[37],2.13 µM
same,TGI,[37],8.18 µM
same,GI50,[38],2.38 µM
same,TGI,[38],6.4 µM
same,GI50,[39],1.64 µM
same,TGI,[39],3.6 µM
same,GI50,[40],3.18 µM
same,TGI,[40],13.6 µM
same,GI50,[41],1.58 µM
same,TGI,[41],3 µM
same,GI50,[42],1.69 µM
same,TGI,[42],3.09 µM
same,GI50,[43],2.18 µM
same,TGI,[43],4.39 µM
same,GI50,[44],1.76 µM
same,TGI,[44],3.23 µM
same,GI50,[45],1.7 µM
same,TGI,[45],3.32 µM
same,GI50,[46],3.1 µM
same,TGI,[46],7.68 µM
same,GI50,[47],1.65 µM
same,TGI,[47],3.26 µM
same,GI50,[48],3.46 µM
same,TGI,[48],16.1 µM
same,GI50,[49],1.67 µM
same,TGI,[49],4.32 µM
same,GI50,[50],3.37 µM
same,TGI,[50],9.92 µM
same,GI50,[51],3.34 µM
same,TGI,[51],12.6 µM
same,GI50,[52],2.14 µM
same,TGI,[52],5.18 µM
same,GI50,[53],3.45 µM
same,TGI,[53],10.1 µM
same,GI50,[54],2.54 µM
same,TGI,[54],6.94 µM
same,GI50,[55],2.16 µM
same,TGI,[55],6.5 µM
same,GI50,[56],2.04 µM
same,TGI,[56],4.7 µM
same,GI50,[57],1.83 µM
same,TGI,[57],5.46 µM
